In the NIST ThermoML archive (doi:10.1021/acs.jced.6b00606):

Experiment: molar heat capacity at constant pressure; xn = mol fraction of the nth substance listed
Details: 100 kPa, Liquid

O=C1CCCCCC1 [cycloheptanone] + C1CCOCC1
molar heat capacity at constant pressure [J/K/mol], Extra sensitive DSC
Details	293.15 K	298.15 K	303.15 K	308.15 K
x2 = 0.1121	196.3	197.43	198.93	200.52
x2 = 0.1652	194.07	195.27	196.82	198.49
x2 = 0.2103	192.18	193.43	195.03	196.74
x2 = 0.2652	189.86	191.15	192.76	194.53
x2 = 0.3187	187.56	188.91	190.53	192.28
x2 = 0.3562	185.92	187.28	188.93	190.71
x2 = 0.4036	183.78	185.22	186.84	188.65
x2 = 0.4562	181.33	182.82	184.44	186.27
x2 = 0.4921	179.6	181.13	182.76	184.65
x2 = 0.5341	177.51	179.07	180.74	182.63
x2 = 0.5896	174.63	176.29	177.96	179.93
x2 = 0.6231	172.8	174.52	176.25	178.18
x2 = 0.6741	169.93	171.69	173.45	175.49
x2 = 0.7256	166.92	168.74	170.53	172.58
x2 = 0.7769	163.72	165.58	167.38	169.46
x2 = 0.8321	160.14	162	163.83	165.92
x2 = 0.8754	157.18	159.06	160.84	162.89
x2 = 0.9365	152.82	154.62	156.31	158.31

O=C1CCCCCC1 [cycloheptanone] + C1COCCO1
molar heat capacity at constant pressure [J/K/mol], Extra sensitive DSC
Details	293.15 K	298.15 K	303.15 K	308.15 K
x2 = 0.0943	199.36	200.68	202.21	203.95
x2 = 0.1587	198.02	199.53	201.25	203.14
x2 = 0.2016	197.04	198.63	200.42	202.4
x2 = 0.2574	195.59	197.23	199.23	201.2
x2 = 0.3025	194.28	196	197.99	200.03
x2 = 0.3412	193.02	194.78	196.83	198.81
x2 = 0.3986	190.94	192.67	194.91	196.9
x2 = 0.4215	189.98	191.84	194.03	196.02
x2 = 0.4796	187.51	189.28	191.5	193.56
x2 = 0.5213	185.45	187.35	189.58	191.52
x2 = 0.5743	182.67	184.52	186.79	188.83
x2 = 0.6142	180.46	182.26	184.49	186.55
x2 = 0.6687	177.12	178.92	181.02	183.16
x2 = 0.7149	174.07	175.86	177.95	180.03
x2 = 0.7623	170.7	172.51	174.5	176.57
x2 = 0.8169	166.69	168.4	170.24	172.25
x2 = 0.8654	162.9	164.56	166.21	168.11
x2 = 0.9149	158.86	160.38	161.87	163.59

O=C1CCCCC1 [cyclohexanone] + C1CCOCC1
molar heat capacity at constant pressure [J/K/mol], Extra sensitive DSC
Details	293.15 K	298.15 K	303.15 K	308.15 K
x2 = 0.0995	176.32	178.62	180.9	183.36
x2 = 0.1452	175.99	178.41	181.03	183.58
x2 = 0.1965	175.76	178.4	181.02	183.49
x2 = 0.2456	175.65	178.24	180.93	183.53
x2 = 0.2863	175.47	178.06	180.64	183.3
x2 = 0.3321	175.13	177.68	180.22	182.87
x2 = 0.3845	174.53	177.03	179.51	182.09
x2 = 0.4215	173.95	176.42	178.92	181.49
x2 = 0.4723	172.86	175.29	177.75	180.31
x2 = 0.5241	171.58	173.99	176.42	178.98
x2 = 0.5796	169.75	172.22	174.56	177.13
x2 = 0.6153	168.49	170.9	173.23	175.87
x2 = 0.6654	166.35	168.77	171.21	173.73
x2 = 0.7132	164.19	166.61	168.92	171.57
x2 = 0.7698	161.26	163.68	165.99	168.56
x2 = 0.8265	158.18	160.54	162.79	165.3
x2 = 0.8732	155.48	157.76	159.9	162.31
x2 = 0.9245	152.46	154.55	156.51	158.75

O=C1CCCCC1 [cyclohexanone] + C1COCCO1
molar heat capacity at constant pressure [J/K/mol]
Details	293.15 K	298.15 K	303.15 K	308.15 K
x2 = 0.0799	173.61	175.65	177.71	179.75
x2 = 0.1351	171.94	173.94	175.96	177.96
x2 = 0.1965	170.17	172.12	174.08	176.03
x2 = 0.2378	169.01	170.93	172.86	174.77
x2 = 0.2874	167.66	169.54	171.43	173.28
x2 = 0.3258	166.66	168.49	170.34	172.17
x2 = 0.3642	165.66	167.46	169.27	171.07
x2 = 0.4195	164.26	166.02	167.78	169.52
x2 = 0.4625	163.21	164.92	166.62	168.33
x2 = 0.5061	162.15	163.82	165.49	167.15
x2 = 0.5543	161.01	162.63	164.25	165.88
x2 = 0.6023	159.9	161.47	163.05	164.62
x2 = 0.6487	158.83	160.36	161.9	163.44
x2 = 0.6946	157.82	159.29	160.78	162.27
x2 = 0.7412	156.79	158.22	159.66	161.12
x2 = 0.7845	155.87	157.25	158.66	160.06
x2 = 0.8398	154.71	156.04	157.39	158.74
x2 = 0.8975	153.56	154.82	156.1	157.39
